The record followed here is PubChem BioAssay (NCI).

Among the test systems are ACHN renal; BT-549 breast; CCRF-CEM leukemia; MALME-3M melanoma; OVCAR-3 ovarian; PC-3 prostate; RPMI-8226 leukemia; SF-295 CNS; UACC-257 melanoma.
Assay in all cases: NCI anticancer screen, dose series, 48 h

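Step 1: Grow cells in 96-well plates. Step 2: Expose to compound for 48 hours at 5 concentrations. Step 3: Interpolate endpoints linearly; if unreached, use highest concentration. TGI: concentration producing complete growth inhibition.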

For `NCCC(N)C(=O)O` (stereo not drawn), the TGI in the test on ACHN renal, with BT-549 breast, in the test on CCRF-CEM leukemia, in the test with MALME-3M melanoma, with OVCAR-3 ovarian and in the test with PC-3 prostate was above 100 µM each time. Further, the TGI with RPMI-8226 leukemia, in the test with SF-295 CNS and with UACC-257 melanoma was above 100 µM throughout.
On to `CC1(C)OC2OC(COC(=O)C=[N+]=[N-])C3OC(C)(C)OC3C2O1` (stereo not drawn), for which the TGI in the test with ACHN renal, in the test with BT-549 breast, in the test with CCRF-CEM leukemia, in the test with MALME-3M melanoma, in the test on OVCAR-3 ovarian and in the test on PC-3 prostate was above 100 µM each time. Besides, the TGI with RPMI-8226 leukemia, in the test with SF-295 CNS and in the test on UACC-257 melanoma was above 100 µM throughout.
For `O=C(Nc1sccc1S(=O)(=O)c1ccccc1)c1cccnc1`, the TGI in the test with ACHN renal was above 100 µM; with BT-549 breast, above 86.1 µM; in the test on CCRF-CEM leukemia it was above 24.5 µM; in the test with MALME-3M melanoma it was above 100 µM; with OVCAR-3 ovarian it was above 100 µM; with PC-3 prostate, above 100 µM. Also, the TGI in the test on RPMI-8226 leukemia, with SF-295 CNS and in the test with UACC-257 melanoma was above 100 µM in each case.
Regarding `Cc1cn(C2CC(n3cc(Cn4cc(F)c(=O)[nH]c4=O)nn3)C(CO)O2)c(=O)[nH]c1=O` (stereo not drawn), the TGI with ACHN renal, in the test on BT-549 breast, in the test on CCRF-CEM leukemia, in the test on MALME-3M melanoma, in the test with OVCAR-3 ovarian and in the test on PC-3 prostate was above 100 µM throughout. In addition, the TGI in the test on RPMI-8226 leukemia, in the test on SF-295 CNS and in the test with UACC-257 melanoma was above 100 µM in each case.
On to `S=C1c2ccccc2NC(=NC2CCCC2)C2CSCN12` (stereo not drawn), for which the TGI in the test with ACHN renal, in the test on BT-549 breast, in the test with CCRF-CEM leukemia, with MALME-3M melanoma, in the test on OVCAR-3 ovarian and in the test on PC-3 prostate was above 100 µM each time. Also, the TGI with RPMI-8226 leukemia, in the test on SF-295 CNS and with UACC-257 melanoma was above 100 µM each time.
Take `CCOC(C[Se]CC(OCC)OCC)OCC`: the TGI in the test with ACHN renal was above 100 µM; in the test on BT-549 breast, 94 µM; in the test on CCRF-CEM leukemia it was 95.9 µM; with MALME-3M melanoma, above 100 µM; in the test on OVCAR-3 ovarian, above 100 µM; with PC-3 prostate it was above 100 µM. Further, the TGI in the test with RPMI-8226 leukemia, in the test on SF-295 CNS and with UACC-257 melanoma was above 100 µM throughout.
As for `CC(C)(CO)CNc1cc(=O)[nH]c(N)n1`, the TGI with ACHN renal, with BT-549 breast, in the test on CCRF-CEM leukemia, in the test with MALME-3M melanoma, in the test with OVCAR-3 ovarian and in the test with PC-3 prostate was above 100 µM in each case. For the same compound, the TGI in the test with RPMI-8226 leukemia, in the test with SF-295 CNS and with UACC-257 melanoma was above 100 µM throughout.
Take `COC(=O)c1cc(C)ccc1CC(Cc1cccc(C)c1)C(=O)OC` (stereo not drawn): the TGI with ACHN renal, with BT-549 breast, with CCRF-CEM leukemia, in the test with MALME-3M melanoma, in the test on OVCAR-3 ovarian and with PC-3 prostate was above 100 µM throughout. The TGI with RPMI-8226 leukemia, in the test with SF-295 CNS and in the test with UACC-257 melanoma was above 100 µM in each case.
On to `CCN1CC(C)Cn2c(=O)[nH]c3cc(Br)cc1c32` (stereo not drawn), for which the TGI with ACHN renal was above 100 µM; with BT-549 breast, 56.8 µM; in the test on CCRF-CEM leukemia, above 100 µM; in the test with MALME-3M melanoma, above 100 µM; with OVCAR-3 ovarian, 77.5 µM; with PC-3 prostate it was above 100 µM. The TGI in the test with RPMI-8226 leukemia, with SF-295 CNS and with UACC-257 melanoma was above 100 µM in each case.
Regarding `Cc1c(-c2c(C)c3ccccc3n2S(=O)(=O)c2ccccc2)n(S(=O)(=O)c2ccccc2)c2ccccc12`, the TGI was above 100 µM with ACHN renal; above 100 µM in the test with BT-549 breast; above 100 µM in the test with CCRF-CEM leukemia; 13.1 µM with MALME-3M melanoma; above 100 µM in the test with OVCAR-3 ovarian; above 100 µM in the test on PC-3 prostate. Also, the TGI in the test with RPMI-8226 leukemia, in the test with SF-295 CNS and in the test on UACC-257 melanoma was above 100 µM each time.
Turning to `CC(=O)O/C=C\OC1CCCC1(c1ccccc1)c1ccccc1` (stereo not drawn), the TGI in the test on ACHN renal was 4.36 µM; in the test on BT-549 breast it was 4.66 µM; in the test with CCRF-CEM leukemia, 5.71 µM; in the test on MALME-3M melanoma, 4.61 µM; with OVCAR-3 ovarian, 7.59 µM; in the test with PC-3 prostate, 9.15 µM. Moreover, the TGI with RPMI-8226 leukemia turned out to be 6.13 µM; in the test with SF-295 CNS it was 23 µM; with UACC-257 melanoma, 13.6 µM.
On to `COc1cc2c(cc1C[N+](C)(C)CSc1ccccc1)-c1ccccc1CC2`, for which the TGI in the test with ACHN renal came out at 28.6 µM; with BT-549 breast, 15.5 µM; with CCRF-CEM leukemia it was 14.3 µM; with MALME-3M melanoma it was 6.23 µM; with OVCAR-3 ovarian, 13 µM; with PC-3 prostate, 11 µM. Further, the TGI with RPMI-8226 leukemia amounted to 17.2 µM; in the test with SF-295 CNS it was 25.5 µM; with UACC-257 melanoma, 12.3 µM.
